Assay results from article PMC8213057, “Targeting ALK2: An Open Science Approach to Developing Therapeutics for the Treatment of Diffuse Intrinsic Pontine Glioma” (Journal of Medicinal Chemistry, 2020).

Assays:
[1] = biological target: AKT3 (Homo sapiens, UniProt Q9Y243); assay: biochemical; settings: read-out: % enzyme activity, 1 μM; Run 1, Run 2
[2] = biological target: MST4 (Homo sapiens, UniProt Q9P289); assay: biochemical; settings: read-out: % enzyme activity, 1 μM; Run 1, Run 2
[3] = biological target: T1, DLK/MAP3K12 (Homo sapiens, UniProt Q12852); settings: 1 μM; Run 1, Run 2
T1 sequence (Q12852 1-859): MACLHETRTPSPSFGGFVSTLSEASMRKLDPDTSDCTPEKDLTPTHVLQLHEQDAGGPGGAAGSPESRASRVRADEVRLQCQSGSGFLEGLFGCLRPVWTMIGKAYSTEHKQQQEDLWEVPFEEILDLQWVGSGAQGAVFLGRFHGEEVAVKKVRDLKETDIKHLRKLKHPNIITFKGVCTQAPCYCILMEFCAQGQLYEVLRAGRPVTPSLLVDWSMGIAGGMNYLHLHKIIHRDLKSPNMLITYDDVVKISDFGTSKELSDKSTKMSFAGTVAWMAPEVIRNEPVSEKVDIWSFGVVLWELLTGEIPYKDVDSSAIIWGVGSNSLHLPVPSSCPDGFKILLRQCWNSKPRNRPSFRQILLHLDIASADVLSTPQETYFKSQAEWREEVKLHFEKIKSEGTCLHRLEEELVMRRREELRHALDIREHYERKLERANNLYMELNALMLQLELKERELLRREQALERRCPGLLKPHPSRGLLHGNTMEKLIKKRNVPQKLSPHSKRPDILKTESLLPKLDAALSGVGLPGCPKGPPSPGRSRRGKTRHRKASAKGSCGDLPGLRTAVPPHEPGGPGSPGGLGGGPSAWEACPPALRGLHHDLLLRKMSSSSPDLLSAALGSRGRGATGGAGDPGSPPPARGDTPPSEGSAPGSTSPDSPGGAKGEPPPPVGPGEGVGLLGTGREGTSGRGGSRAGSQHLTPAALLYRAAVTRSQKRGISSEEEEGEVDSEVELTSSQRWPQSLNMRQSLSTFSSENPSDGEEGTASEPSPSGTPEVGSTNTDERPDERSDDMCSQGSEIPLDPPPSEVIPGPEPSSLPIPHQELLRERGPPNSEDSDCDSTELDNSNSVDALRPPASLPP

[4] = biological target: T2, DRAK1/STK17A (Homo sapiens, UniProt Q9UEE5); settings: 1 μM; Run 1, Run 2
T2 sequence (Q9UEE5 1-414): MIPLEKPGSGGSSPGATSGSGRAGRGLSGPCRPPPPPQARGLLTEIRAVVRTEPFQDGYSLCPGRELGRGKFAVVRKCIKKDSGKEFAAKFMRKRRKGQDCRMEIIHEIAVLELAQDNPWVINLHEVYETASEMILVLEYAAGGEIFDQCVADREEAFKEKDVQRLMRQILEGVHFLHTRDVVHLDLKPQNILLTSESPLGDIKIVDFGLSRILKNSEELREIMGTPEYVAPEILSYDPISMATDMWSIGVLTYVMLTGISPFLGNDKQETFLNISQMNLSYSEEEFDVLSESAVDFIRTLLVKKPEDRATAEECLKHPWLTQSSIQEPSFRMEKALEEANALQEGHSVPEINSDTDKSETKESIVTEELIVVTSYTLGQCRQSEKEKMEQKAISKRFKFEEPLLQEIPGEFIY

[5] = biological target: T3, TEC (Homo sapiens, UniProt P42680); assay: biochemical; settings: read-out: % enzyme activity, 1 μM; Run 1, Run 2
T3 sequence (P42680 1-631): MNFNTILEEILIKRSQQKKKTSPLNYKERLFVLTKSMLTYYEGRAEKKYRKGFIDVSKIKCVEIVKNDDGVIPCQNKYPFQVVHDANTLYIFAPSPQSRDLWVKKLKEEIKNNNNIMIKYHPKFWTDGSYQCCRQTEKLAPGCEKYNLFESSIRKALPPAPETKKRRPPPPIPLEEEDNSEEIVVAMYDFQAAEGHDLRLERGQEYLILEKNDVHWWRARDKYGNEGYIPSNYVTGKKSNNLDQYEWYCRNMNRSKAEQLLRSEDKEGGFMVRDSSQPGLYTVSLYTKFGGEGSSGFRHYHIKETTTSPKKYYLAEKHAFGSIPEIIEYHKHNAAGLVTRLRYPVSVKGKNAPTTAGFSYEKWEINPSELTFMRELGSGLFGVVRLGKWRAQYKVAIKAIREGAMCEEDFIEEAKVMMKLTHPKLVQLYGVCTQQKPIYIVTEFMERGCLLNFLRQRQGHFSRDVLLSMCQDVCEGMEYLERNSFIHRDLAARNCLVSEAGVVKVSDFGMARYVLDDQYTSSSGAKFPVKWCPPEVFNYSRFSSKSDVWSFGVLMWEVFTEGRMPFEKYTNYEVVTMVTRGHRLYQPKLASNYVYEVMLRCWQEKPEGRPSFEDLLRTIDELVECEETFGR

[6] = biological target: CK2a2 (Homo sapiens, UniProt P19784); assay: biochemical; settings: read-out: % enzyme activity, 1 μM; Run 1, Run 2
[7] = biological target: T4, IKKe/IKBKE (Homo sapiens, UniProt Q14164); assay: biochemical; settings: read-out: % enzyme activity, 1 μM; Run 1, Run 2
T4 sequence (Q14164 1-716): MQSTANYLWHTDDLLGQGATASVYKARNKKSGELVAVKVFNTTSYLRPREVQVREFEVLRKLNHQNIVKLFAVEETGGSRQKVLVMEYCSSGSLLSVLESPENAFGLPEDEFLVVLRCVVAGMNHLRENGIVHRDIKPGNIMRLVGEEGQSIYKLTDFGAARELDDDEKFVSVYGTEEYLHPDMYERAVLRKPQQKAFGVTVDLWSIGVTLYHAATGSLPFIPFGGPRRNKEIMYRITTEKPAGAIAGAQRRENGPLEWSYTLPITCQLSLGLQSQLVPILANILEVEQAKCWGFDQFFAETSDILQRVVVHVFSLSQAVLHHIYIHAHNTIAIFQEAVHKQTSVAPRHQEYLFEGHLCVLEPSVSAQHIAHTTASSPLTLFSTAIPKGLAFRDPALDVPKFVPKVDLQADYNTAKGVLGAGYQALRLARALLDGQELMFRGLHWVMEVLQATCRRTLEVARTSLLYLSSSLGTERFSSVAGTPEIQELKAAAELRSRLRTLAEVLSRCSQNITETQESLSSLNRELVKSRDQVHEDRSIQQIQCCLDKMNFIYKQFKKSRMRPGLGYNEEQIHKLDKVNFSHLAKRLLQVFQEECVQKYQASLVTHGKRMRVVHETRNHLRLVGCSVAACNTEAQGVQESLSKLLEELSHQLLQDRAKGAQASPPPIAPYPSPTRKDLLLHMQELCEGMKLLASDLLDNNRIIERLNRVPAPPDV

[8] = biological target: STK33 (Homo sapiens, UniProt Q9BYT3); settings: 1 μM; Run 1, Run 2
Chain of STK33 (Q9BYT3 whole entry): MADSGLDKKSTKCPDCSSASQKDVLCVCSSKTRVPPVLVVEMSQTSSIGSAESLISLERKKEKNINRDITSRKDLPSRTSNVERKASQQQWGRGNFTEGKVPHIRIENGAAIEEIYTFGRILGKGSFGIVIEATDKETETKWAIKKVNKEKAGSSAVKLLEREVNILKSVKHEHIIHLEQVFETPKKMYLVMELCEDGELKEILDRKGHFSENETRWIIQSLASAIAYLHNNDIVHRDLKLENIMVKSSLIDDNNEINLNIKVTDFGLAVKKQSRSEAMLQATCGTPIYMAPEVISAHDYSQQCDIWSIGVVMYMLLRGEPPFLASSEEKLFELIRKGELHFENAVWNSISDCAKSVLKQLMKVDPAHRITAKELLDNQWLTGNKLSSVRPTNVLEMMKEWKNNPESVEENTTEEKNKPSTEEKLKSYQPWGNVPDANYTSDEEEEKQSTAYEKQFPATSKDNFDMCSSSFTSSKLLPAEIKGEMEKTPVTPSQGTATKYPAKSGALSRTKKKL

Chain of MST4 (Q9P289 whole entry): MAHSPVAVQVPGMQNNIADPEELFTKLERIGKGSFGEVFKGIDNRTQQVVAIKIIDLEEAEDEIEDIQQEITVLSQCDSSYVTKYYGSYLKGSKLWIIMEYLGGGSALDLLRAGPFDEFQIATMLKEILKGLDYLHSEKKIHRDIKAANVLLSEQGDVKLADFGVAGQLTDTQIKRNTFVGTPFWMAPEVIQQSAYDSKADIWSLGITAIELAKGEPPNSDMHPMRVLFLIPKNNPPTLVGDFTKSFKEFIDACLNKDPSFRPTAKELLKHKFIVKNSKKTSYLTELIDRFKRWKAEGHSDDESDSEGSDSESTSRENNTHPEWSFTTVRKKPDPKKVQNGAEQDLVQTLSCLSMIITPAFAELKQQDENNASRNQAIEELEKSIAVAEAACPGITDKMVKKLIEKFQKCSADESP
Chain of CK2a2 (P19784 whole entry): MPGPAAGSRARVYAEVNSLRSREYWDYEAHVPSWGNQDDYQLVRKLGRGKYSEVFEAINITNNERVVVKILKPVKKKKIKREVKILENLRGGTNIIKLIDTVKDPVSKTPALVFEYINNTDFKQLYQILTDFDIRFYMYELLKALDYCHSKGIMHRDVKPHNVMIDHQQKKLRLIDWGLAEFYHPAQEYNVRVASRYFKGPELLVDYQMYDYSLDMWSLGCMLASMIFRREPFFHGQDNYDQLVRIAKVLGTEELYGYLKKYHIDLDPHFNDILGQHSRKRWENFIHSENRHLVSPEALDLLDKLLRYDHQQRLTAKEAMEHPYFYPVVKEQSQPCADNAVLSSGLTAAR
Chain of AKT3 (Q9Y243 whole entry): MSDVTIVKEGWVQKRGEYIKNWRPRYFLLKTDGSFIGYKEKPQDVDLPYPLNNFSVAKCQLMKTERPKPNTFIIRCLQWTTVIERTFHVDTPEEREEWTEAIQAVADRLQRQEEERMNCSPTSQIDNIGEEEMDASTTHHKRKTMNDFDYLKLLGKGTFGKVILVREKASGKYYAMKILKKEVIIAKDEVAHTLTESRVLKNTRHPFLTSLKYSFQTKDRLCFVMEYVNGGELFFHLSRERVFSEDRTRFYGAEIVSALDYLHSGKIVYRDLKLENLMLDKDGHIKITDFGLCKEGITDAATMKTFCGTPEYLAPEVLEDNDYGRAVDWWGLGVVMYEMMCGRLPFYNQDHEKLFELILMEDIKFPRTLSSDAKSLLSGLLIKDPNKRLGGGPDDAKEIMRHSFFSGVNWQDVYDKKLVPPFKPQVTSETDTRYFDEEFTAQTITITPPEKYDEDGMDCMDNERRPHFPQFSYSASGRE

Row | SMILES | remaining activity at 1 µM [1] | remaining activity at 1 µM [2] | % enzyme activity [3] | % enzyme activity [4] | remaining activity at 1 µM [5] | remaining activity at 1 µM [6] | remaining activity at 1 µM [7] | % enzyme activity [8]
1 | COc1cc(-c2cncc(-c3ccc(N4CCN(C)CC4)cc3)c2C)cc(F)c1C(N)=O [Compound 26a, 2-Fluoro-6-methoxy-4-(4-methyl-5-(4-(4-methylpiperazin-1-yl)phenyl)pyridin-3-yl)benzamide] | 95% | 86.9% | 91.76% | 95.60% | 108% | 95.3% | 91.1% | 88.77%
2 | COc1cc(-c2cncc(-c3ccc(N4C[C@@H](C)N(C)[C@@H](C)C4)cc3)c2C)cc(F)c1C(N)=O [Compound 26c, 2-Fluoro-6-methoxy-4-(4-methyl-5-(4-((3R,5S)-3,4,5-trimethylpiperazin-1-yl)phenyl)pyridin-3-yl)benzamide] | 98.7% | 95% | 97.93% | 95.69% | 106% | 101% | 96.7% | 96.94%
